Test system: 777334-354-R2-J4-PDC tumor spheroids with HUVEC/MSC, viability
Test: Anticancer human tumor 777334-354-R2-J4-PDC patient-derived pancreatic adenocarcinoma cell line growth inhibition [GQUAD]
Settings: for IC50: curve of first compound; for viability, T/C: stronger effect = lower value
In short: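 Multi-cell-type spheroids of tumor cells with HUVEC and mesenchymal stem cells, treated with drug combinations. Concentrations descend in half-log steps from near clinical Cmax, or from 10 microM where Cmax is unknown; viability read-out.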

[1] = second compound 0.0316 µM, first compound 0.0316 µM
[2] = second compound 0.0316 µM, first compound 0.1 µM
[3] = second compound 0.0316 µM, first compound 0.316 µM
[4] = second compound 0.0316 µM, first compound 1 µM
[5] = second compound 0.0316 µM, first compound 3.16 µM
[6] = second compound 0.0316 µM, first compound 10 µM
[7] = second compound 0.1 µM, first compound 0.0316 µM
[8] = second compound 0.1 µM, first compound 0.1 µM
[9] = second compound 0.1 µM, first compound 0.316 µM
[10] = second compound 0.1 µM, first compound 1 µM
[11] = second compound 0.1 µM, first compound 3.16 µM
[12] = second compound 0.1 µM, first compound 10 µM
[13] = second compound 0.316 µM, first compound 0.0316 µM
[14] = second compound 0.316 µM, first compound 0.1 µM
[15] = second compound 0.316 µM, first compound 0.316 µM
[16] = second compound 0.316 µM, first compound 1 µM
[17] = second compound 0.316 µM, first compound 3.16 µM
[18] = second compound 0.316 µM, first compound 10 µM
[19] = second compound 1 µM, first compound 0.0316 µM
[20] = second compound 1 µM, first compound 0.1 µM
[21] = second compound 1 µM, first compound 0.316 µM
[22] = second compound 1 µM, first compound 1 µM
[23] = second compound 1 µM, first compound 3.16 µM
[24] = second compound 1 µM, first compound 10 µM
[25] = second compound 3.16 µM, first compound 0.0316 µM
[26] = second compound 3.16 µM, first compound 0.1 µM
[27] = second compound 3.16 µM, first compound 0.316 µM
[28] = second compound 3.16 µM, first compound 1 µM
[29] = second compound 3.16 µM, first compound 3.16 µM
[30] = second compound 3.16 µM, first compound 10 µM
[31] = second compound 10 µM, first compound 0.0316 µM
[32] = second compound 10 µM, first compound 0.1 µM
[33] = second compound 10 µM, first compound 0.316 µM
[34] = second compound 10 µM, first compound 1 µM
[35] = second compound 10 µM, first compound 3.16 µM
[36] = second compound 10 µM, first compound 10 µM
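Note: spheroids exposed to compounds for 7 days before readout.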

Work on `C=CC(=O)N1CCN(c2nc(=O)n(-c3c(C)ccnc3C(C)C)c3nc(-c4c(O)cccc4F)c(F)cc23)C(C)C1` (stereo unspecified) + Cc1cnc(CNC(=O)c2c(=O)c3ccc(N4CCCN(C)CC4)nc3n3c2sc2ccccc23)cn1 yielded an IC50 (second compound 0.0316 µM) of over 10 µM, an IC50 (second compound 0.1 µM) of over 10 µM and an IC50 (second compound 0.316 µM) of over 10 µM. For the same compound, the IC50 (second compound 1 µM) was over 10 µM, the IC50 (second compound 3.16 µM) was over 10 µM and the IC50 (second compound 10 µM) was over 10 µM. It also gave a viability, T/C [1] of 106%, a viability, T/C [2] of 75.7% and a viability, T/C [3] of 96.2%. The viability, T/C [4] was 106%, the viability, T/C [5] was 110% and the viability, T/C [6] was 97.2%. For the same compound, the viability, T/C [7] was 95.3%, the viability, T/C [8] was 79.4% and the viability, T/C [9] was 90.2%. For the same compound, the viability, T/C [10] was 89.9%, the viability, T/C [11] was 109% and the viability, T/C [12] was 81.2%. For the same compound, the viability, T/C [13] was 81.2%, the viability, T/C [14] was 91.3% and the viability, T/C [15] was 87.7%. For the same compound, the viability, T/C [16] was 104%, the viability, T/C [17] was 90.7% and the viability, T/C [18] was 76.3%. The viability, T/C [19] was 73.7%, the viability, T/C [20] was 74.1% and the viability, T/C [21] was 69.9%. The viability, T/C [22] was 81.4%, the viability, T/C [23] was 82.9% and the viability, T/C [24] was 71.5%. For the same compound, the viability, T/C [25] was 61.8%, the viability, T/C [26] was 60.8% and the viability, T/C [27] was 62.5%. For the same compound, the viability, T/C [28] was 66.8%, the viability, T/C [29] was 76.9% and the viability, T/C [30] was 55.3%. The viability, T/C [31] was 56.6%, the viability, T/C [32] was 55.3% and the viability, T/C [33] was 58.6%. The viability, T/C [34] was 70%, the viability, T/C [35] was 64.5% and the viability, T/C [36] was 49.9%.
`Nc1ccn(C2OC(CO)C(O)C2(F)F)c(=O)n1` (stereo unspecified) + Cc1cnc(CNC(=O)c2c(=O)c3ccc(N4CCCN(C)CC4)nc3n3c2sc2ccccc23)cn1 showed an IC50 (second compound 0.0316 µM) of 0.975 µM, an IC50 (second compound 0.1 µM) of 0.679 µM and an IC50 (second compound 0.316 µM) of 1.2 µM. It also gave an IC50 (second compound 1 µM) of 0.334 µM, an IC50 (second compound 3.16 µM) of 0.503 µM and an IC50 (second compound 10 µM) of 0.18 µM. For the same compound, the viability, T/C [1] was 81.2%, the viability, T/C [2] was 61.2% and the viability, T/C [3] was 69.1%. The viability, T/C [4] was 46.3%, the viability, T/C [5] was 39.1% and the viability, T/C [6] was 31.6%. It also gave a viability, T/C [7] of 85.4%, a viability, T/C [8] of 64.5% and a viability, T/C [9] of 60.8%. The viability, T/C [10] was 45.7%, the viability, T/C [11] was 37.5% and the viability, T/C [12] was 32.7%. It also gave a viability, T/C [13] of 81.5%, a viability, T/C [14] of 72.5% and a viability, T/C [15] of 55.5%. It also gave a viability, T/C [16] of 51.7%, a viability, T/C [17] of 47.8% and a viability, T/C [18] of 31.6%. It also gave a viability, T/C [19] of 67.9%, a viability, T/C [20] of 58.2% and a viability, T/C [21] of 46.4%. It also gave a viability, T/C [22] of 45.2%, a viability, T/C [23] of 41.1% and a viability, T/C [24] of 30.2%. It also gave a viability, T/C [25] of 61.1%, a viability, T/C [26] of 64% and a viability, T/C [27] of 48.4%. The viability, T/C [28] was 43.9%, the viability, T/C [29] was 43.6% and the viability, T/C [30] was 30.5%. It also gave a viability, T/C [31] of 57.3%, a viability, T/C [32] of 48.3% and a viability, T/C [33] of 48.7%. For the same compound, the viability, T/C [34] was 40.4%, the viability, T/C [35] was 41.6% and the viability, T/C [36] was 27%.
`CC[C@@]1(O)C(=O)OCc2c1cc1n(c2=O)Cc2cc3c(CN(C)C)c(O)ccc3nc2-1` + Cc1[nH]c2ccc(F)cc2c1-c1nc2c3cccnc3c3ncccc3c2[nH]1 showed an IC50 (second compound 0.0316 µM) of 0.218 µM, an IC50 (second compound 0.1 µM) of 0.191 µM and an IC50 (second compound 0.316 µM) of 0.2 µM. The IC50 (second compound 1 µM) was 0.124 µM, the IC50 (second compound 3.16 µM) was under 0.000999 µM and the IC50 (second compound 10 µM) was under 0.000999 µM. The viability, T/C (second compound 0.0316 µM, first compound 0.000999 µM) was 103%, the viability, T/C (second compound 0.0316 µM, first compound 0.00316 µM) was 102% and the viability, T/C (second compound 0.0316 µM, first compound 0.00999 µM) was 104%. The viability, T/C [1] was 82.3%, the viability, T/C (second compound 0.0316 µM, first compound 0.0999 µM) was 69.6% and the viability, T/C [3] was 41.3%. For the same compound, the viability, T/C (second compound 0.1 µM, first compound 0.000999 µM) was 100%, the viability, T/C (second compound 0.1 µM, first compound 0.00316 µM) was 97.1% and the viability, T/C (second compound 0.1 µM, first compound 0.00999 µM) was 111%. The viability, T/C [7] was 96%, the viability, T/C (second compound 0.1 µM, first compound 0.0999 µM) was 61% and the viability, T/C [9] was 41.5%. It also gave a viability, T/C (second compound 0.316 µM, first compound 0.000999 µM) of 89.5%, a viability, T/C (second compound 0.316 µM, first compound 0.00316 µM) of 95.5% and a viability, T/C (second compound 0.316 µM, first compound 0.00999 µM) of 96.4%. For the same compound, the viability, T/C [13] was 85.5%, the viability, T/C (second compound 0.316 µM, first compound 0.0999 µM) was 61.7% and the viability, T/C [15] was 42.4%. It also gave a viability, T/C (second compound 1 µM, first compound 0.000999 µM) of 79.3%, a viability, T/C (second compound 1 µM, first compound 0.00316 µM) of 83.6% and a viability, T/C (second compound 1 µM, first compound 0.00999 µM) of 85.9%. It also gave a viability, T/C [19] of 83.6%, a viability, T/C (second compound 1 µM, first compound 0.0999 µM) of 53.9% and a viability, T/C [21] of 33%. It also gave a viability, T/C (second compound 3.16 µM, first compound 0.000999 µM) of 34.2%, a viability, T/C (second compound 3.16 µM, first compound 0.00316 µM) of 41.7% and a viability, T/C (second compound 3.16 µM, first compound 0.00999 µM) of 35.7%. It also gave a viability, T/C [25] of 28.4%, a viability, T/C (second compound 3.16 µM, first compound 0.0999 µM) of 15.9% and a viability, T/C [27] of 14.6%. For the same compound, the viability, T/C (second compound 10 µM, first compound 0.000999 µM) was 28.4%, the viability, T/C (second compound 10 µM, first compound 0.00316 µM) was 38.5% and the viability, T/C (second compound 10 µM, first compound 0.00999 µM) was 30.7%. It also gave a viability, T/C [31] of 20.2%, a viability, T/C (second compound 10 µM, first compound 0.0999 µM) of 13.3% and a viability, T/C [33] of 11.3%.

From PubChem BioAssay AID2060499 (Molecular Pharmacology Branch, DTP, NCI, 2025)
